Measured values as given in the NIST ThermoML archive (doi:10.1016/j.jct.2018.08.014).
± gives the expanded uncertainty stated by the source.

Columns and labels:
[1] = molar heat capacity at constant pressure; conditions: 101.33 kPa, Liquid, DSC
[2] = Crystal; DSC

CCCCCCCC(=O)OCCCC [butyl octanoate]
[1]
Conditions	molar heat capacity at constant pressure [J/K/mol]
241 K	387.43 ± 41
243 K	387.43 ± 41
245 K	386.6 ± 41
247 K	386.6 ± 41
249 K	386.6 ± 41
251 K	386.6 ± 41
253 K	386.6 ± 41
255 K	387.43 ± 41
257 K	388.26 ± 42
259 K	387.43 ± 41
261 K	387.43 ± 41
263 K	386.6 ± 41
265 K	386.6 ± 41
267 K	386.6 ± 41
269 K	386.6 ± 41
271 K	386.6 ± 41
273 K	386.6 ± 41
275 K	386.6 ± 41
277 K	386.6 ± 41
279 K	388.26 ± 42
281 K	389.1 ± 42
283 K	390.76 ± 42
285 K	391.59 ± 42
287 K	391.59 ± 42
289 K	393.25 ± 42
291 K	394.08 ± 42
293 K	394.92 ± 42
295 K	395.75 ± 42
297 K	396.58 ± 42
298 K	397.41 ± 42
299 K	397.41 ± 42
301 K	398.24 ± 42
303 K	399.07 ± 42

Conditions	Triple point temperature [K]
[2]	230 ± 2

CCCCCCCCCC(=O)OCC [ethyl decanoate]
[1]
Conditions	molar heat capacity at constant pressure [J/K/mol]
263 K	375.79 ± 40
265 K	375.79 ± 40
267 K	375.79 ± 40
269 K	375.79 ± 40
271 K	375.79 ± 40
273 K	374.96 ± 40
275 K	374.13 ± 40
277 K	374.96 ± 40
279 K	376.62 ± 40
281 K	378.29 ± 40
283 K	379.12 ± 40
285 K	379.95 ± 40
287 K	379.95 ± 40
289 K	380.78 ± 41
291 K	380.78 ± 41
293 K	381.61 ± 41
295 K	382.44 ± 41
297 K	383.28 ± 41
298 K	383.28 ± 41
299 K	384.11 ± 41
301 K	385.77 ± 41
303 K	385.77 ± 41

Conditions	Triple point temperature [K]
[2]	252 ± 2

CCCCCCOC(=O)CCCCC [hexanoic acid, hexyl ester]
[1]
Conditions	molar heat capacity at constant pressure [J/K/mol]
227 K	390.76 ± 42
229 K	387.43 ± 41
231 K	385.77 ± 41
233 K	384.94 ± 41
235 K	384.11 ± 41
237 K	384.11 ± 41
239 K	383.28 ± 41
241 K	383.28 ± 41
243 K	383.28 ± 41
245 K	383.28 ± 41
247 K	383.28 ± 41
249 K	383.28 ± 41
251 K	383.28 ± 41
253 K	383.28 ± 41
255 K	384.11 ± 41
257 K	384.94 ± 41
259 K	384.94 ± 41
261 K	384.94 ± 41
263 K	385.77 ± 41
265 K	385.77 ± 41
267 K	385.77 ± 41
269 K	385.77 ± 41
271 K	385.77 ± 41
273 K	384.94 ± 41
275 K	384.94 ± 41
277 K	385.77 ± 41
279 K	386.6 ± 41
281 K	387.43 ± 41
283 K	389.1 ± 42
285 K	389.93 ± 42
287 K	390.76 ± 42
289 K	392.42 ± 42
291 K	392.42 ± 42
293 K	393.25 ± 42
295 K	394.08 ± 42
297 K	394.92 ± 42
298 K	394.92 ± 42
299 K	394.92 ± 42
301 K	396.58 ± 42
303 K	397.41 ± 42

Conditions	Triple point temperature [K]
[2]	217 ± 2

CCCCCCCCCCC(=O)OC [methyl undecanoate]
[1]
Conditions	molar heat capacity at constant pressure [J/K/mol]
273 K	381.61 ± 41
275 K	381.61 ± 41
277 K	384.11 ± 41
279 K	380.78 ± 41
281 K	381.61 ± 41
283 K	382.44 ± 41
285 K	382.44 ± 41
287 K	385.77 ± 41
289 K	384.11 ± 41
291 K	384.11 ± 41
293 K	384.94 ± 41
295 K	384.94 ± 41
297 K	385.77 ± 41
298 K	389.1 ± 42
299 K	385.77 ± 41
301 K	386.6 ± 41
303 K	389.93 ± 42

Conditions	Triple point temperature [K]
[2]	262 ± 2

CCCCCCCCOC(=O)CCC [octyl butanoate]
[1]
Conditions	molar heat capacity at constant pressure [J/K/mol]
227 K	380.78 ± 41
229 K	379.12 ± 40
231 K	379.12 ± 40
233 K	378.29 ± 40
235 K	376.62 ± 40
237 K	376.62 ± 40
239 K	375.79 ± 40
241 K	374.96 ± 40
243 K	374.13 ± 40
245 K	373.3 ± 40
247 K	373.3 ± 40
249 K	372.47 ± 40
251 K	372.47 ± 40
253 K	372.47 ± 40
255 K	372.47 ± 40
257 K	373.3 ± 40
259 K	372.47 ± 40
261 K	373.3 ± 40
263 K	373.3 ± 40
265 K	373.3 ± 40
267 K	374.13 ± 40
269 K	374.13 ± 40
271 K	374.13 ± 40
273 K	373.3 ± 40
275 K	373.3 ± 40
277 K	373.3 ± 40
279 K	374.13 ± 40
281 K	375.79 ± 40
283 K	376.62 ± 40
285 K	377.46 ± 40
287 K	378.29 ± 40
289 K	379.12 ± 40
291 K	379.95 ± 40
293 K	380.78 ± 41
295 K	381.61 ± 41
297 K	383.28 ± 41
298 K	383.28 ± 41
299 K	384.11 ± 41
301 K	385.77 ± 41
303 K	385.77 ± 41

Conditions	Triple point temperature [K]
[2]	218 ± 2
